Consider 15 compounds from patent US20240018158A1, “BRM TARGETING COMPOUNDS AND ASSOCIATED METHODS OF USE” (Prelude Therapeutics Incorporated, priority 2020, published 2024).

One test deals with SMARCA2 (Homo sapiens (Human), UniProt P51531). Briefly: SMARCA2 HiBiT degradation assay in HeLa cells. The format is cell-based. Particulars: 18 hours; for DC50: read-out: DC50 (SM2-HeLa) SMARCA2 degradation potency; for Dmax: read-out: Dmax % (SM2-HeLa) maximum SMARCA2 degradation within the concentrations tested. As for the experimental part:
(§1) HiBiT peptide knock-in of SMARCA2 in LgBiT expressing HEK293T cells was performed by CRISPR-mediated tagging system as described Promega. The homozygous HiBiT knock-in on c-terminus SMARCA2 was confirmed by sanger sequence. SMARCA2-HiBiT knock-in Hela monoclonal cell (CS302366) and SMARCA4-HiBiT knock-in Hela monoclonal cell (CS3023226) were purchased from Promega. The heterozygous HiBiT-knock-in was confirmed by sanger sequence in both SMARCA2-HiBiT and SMARCA4-HiBiT monoclonal cells.
(§2) Dispense 10 μL aliquot of prepared Hela-SMARCA2-HiBiT or Hela-SMARCA4-HiBiT cells (1:1 ratio of cells:Trypan Blue (#1450013, Bio-Rad)) onto cell counting slide (#145-0011, Bio-Rad) and obtain cell density and cell viability using cell counter (TC20, Bio-Rad). Remove appropriate volume of resuspended cells from culture flask to accommodate 2500 cells/well @ 20 μL/well. Transfer Hela-HiBiT cells to 50 ml conical (#430290, Corning). Spin down at 1000 rpm for 5 min using tabletop centrifuge (SPINCHRON 15, Beckman). Discard supernatant and resuspend cell pellet in modified EMEM (#30-2003, ATCC) cell culture media containing 10% FBS (F2422-500ML, Sigma), and 1×Penicillin/Streptomycin (200 g/1) (30-002-CI, Corning) to a cell density of 125,000 cells/ml. Dispense 20 μL of resuspended Hela-HiBit cells per well in 384-well TC treated plate (#12-565-343, Thermo Scientific) using standard cassette (#50950372, Thermo Scientific) on Multidrop Combi (#5840310, Thermo Scientific) inside laminar flow cabinet. Dispense test compounds onto plates using digital liquid dispenser (D300E, Tecan). Incubate plates in humidified tissue culture incubator @37° C. for 18 hours. Add 20 ul of prepared Nano-Glo® HiBiT Lytic detection buffer (N3050, Promega) to each well of 384-well plate using small tube cassette (#24073295, Thermo Scientific) on Multidrop Combi, incubate @ RT for 30-60 min. Read plates on microplate reader (Envision 2105, PerkinElmer) using 384 well Ultra-Sensitive luminescence mode. Raw data files and compound information reports are swept into centralized data lake and deconvoluted using automated scripts designed by TetraScience, Inc. Data analysis, curve-fitting and reporting done in Dotmatics Informatics Suite using Screening Ultra module.
A general note: The HiBiT peptide binds its large partner to form an active luciferase.

In another test the target is SMARCA4 (Homo sapiens (Human), UniProt P51532). The test is described as follows: SMARCA4 HiBiT degradation assay in HeLa cells. Particulars: 18 hours; for DC50: read-out: DC50 (SM4-HeLa) SMARCA4 degradation potency; for Dmax: HeLa, read-out: Dmax % (SM4-HeLa) maximum SMARCA4 degradation within the concentrations tested. The test is classed as cell-based. As for the experimental part: as §1, §2
Chain of SMARCA4 (P51532 whole entry): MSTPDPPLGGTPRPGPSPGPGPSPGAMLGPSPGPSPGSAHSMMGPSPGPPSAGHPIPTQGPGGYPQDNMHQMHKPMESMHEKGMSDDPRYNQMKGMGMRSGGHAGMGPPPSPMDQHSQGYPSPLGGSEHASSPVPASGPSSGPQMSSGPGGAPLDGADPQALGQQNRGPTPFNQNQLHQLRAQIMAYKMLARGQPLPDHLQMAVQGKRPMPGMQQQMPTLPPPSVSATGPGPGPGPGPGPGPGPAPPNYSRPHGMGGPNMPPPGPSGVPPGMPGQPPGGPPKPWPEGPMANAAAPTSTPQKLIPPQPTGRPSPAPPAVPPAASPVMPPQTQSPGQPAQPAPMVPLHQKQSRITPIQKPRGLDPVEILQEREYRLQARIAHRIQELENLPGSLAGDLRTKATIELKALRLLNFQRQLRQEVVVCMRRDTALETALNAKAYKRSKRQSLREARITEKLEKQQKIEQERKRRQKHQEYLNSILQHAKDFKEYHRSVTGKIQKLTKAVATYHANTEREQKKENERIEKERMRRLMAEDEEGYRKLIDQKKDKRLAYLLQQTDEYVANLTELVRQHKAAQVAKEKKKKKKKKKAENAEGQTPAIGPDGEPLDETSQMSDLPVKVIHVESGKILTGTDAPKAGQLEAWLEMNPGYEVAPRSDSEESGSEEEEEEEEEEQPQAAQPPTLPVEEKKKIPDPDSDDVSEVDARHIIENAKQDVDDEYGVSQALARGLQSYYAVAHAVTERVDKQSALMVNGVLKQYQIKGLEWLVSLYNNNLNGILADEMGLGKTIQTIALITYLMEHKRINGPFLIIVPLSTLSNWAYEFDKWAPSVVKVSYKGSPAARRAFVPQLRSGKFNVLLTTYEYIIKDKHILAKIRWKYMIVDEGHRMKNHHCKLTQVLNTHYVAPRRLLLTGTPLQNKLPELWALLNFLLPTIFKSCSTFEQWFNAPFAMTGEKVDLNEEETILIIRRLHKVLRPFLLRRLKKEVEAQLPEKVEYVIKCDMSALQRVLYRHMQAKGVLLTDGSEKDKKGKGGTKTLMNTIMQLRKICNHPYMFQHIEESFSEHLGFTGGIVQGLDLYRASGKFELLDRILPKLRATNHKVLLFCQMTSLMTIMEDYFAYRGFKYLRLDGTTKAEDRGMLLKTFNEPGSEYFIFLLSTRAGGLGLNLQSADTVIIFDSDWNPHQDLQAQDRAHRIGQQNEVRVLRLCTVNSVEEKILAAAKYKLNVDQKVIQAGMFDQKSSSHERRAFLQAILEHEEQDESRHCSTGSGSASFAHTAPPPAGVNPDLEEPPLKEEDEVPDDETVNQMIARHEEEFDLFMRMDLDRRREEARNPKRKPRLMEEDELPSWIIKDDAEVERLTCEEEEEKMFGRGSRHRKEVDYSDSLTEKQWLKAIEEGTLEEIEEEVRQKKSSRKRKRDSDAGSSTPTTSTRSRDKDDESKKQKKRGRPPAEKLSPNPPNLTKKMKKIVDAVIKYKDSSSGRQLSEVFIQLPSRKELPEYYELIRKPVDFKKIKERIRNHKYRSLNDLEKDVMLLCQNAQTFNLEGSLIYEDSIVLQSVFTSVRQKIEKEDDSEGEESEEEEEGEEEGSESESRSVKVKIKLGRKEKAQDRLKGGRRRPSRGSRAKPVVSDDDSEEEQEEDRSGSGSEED

Chain of SMARCA2 (P51531 whole entry): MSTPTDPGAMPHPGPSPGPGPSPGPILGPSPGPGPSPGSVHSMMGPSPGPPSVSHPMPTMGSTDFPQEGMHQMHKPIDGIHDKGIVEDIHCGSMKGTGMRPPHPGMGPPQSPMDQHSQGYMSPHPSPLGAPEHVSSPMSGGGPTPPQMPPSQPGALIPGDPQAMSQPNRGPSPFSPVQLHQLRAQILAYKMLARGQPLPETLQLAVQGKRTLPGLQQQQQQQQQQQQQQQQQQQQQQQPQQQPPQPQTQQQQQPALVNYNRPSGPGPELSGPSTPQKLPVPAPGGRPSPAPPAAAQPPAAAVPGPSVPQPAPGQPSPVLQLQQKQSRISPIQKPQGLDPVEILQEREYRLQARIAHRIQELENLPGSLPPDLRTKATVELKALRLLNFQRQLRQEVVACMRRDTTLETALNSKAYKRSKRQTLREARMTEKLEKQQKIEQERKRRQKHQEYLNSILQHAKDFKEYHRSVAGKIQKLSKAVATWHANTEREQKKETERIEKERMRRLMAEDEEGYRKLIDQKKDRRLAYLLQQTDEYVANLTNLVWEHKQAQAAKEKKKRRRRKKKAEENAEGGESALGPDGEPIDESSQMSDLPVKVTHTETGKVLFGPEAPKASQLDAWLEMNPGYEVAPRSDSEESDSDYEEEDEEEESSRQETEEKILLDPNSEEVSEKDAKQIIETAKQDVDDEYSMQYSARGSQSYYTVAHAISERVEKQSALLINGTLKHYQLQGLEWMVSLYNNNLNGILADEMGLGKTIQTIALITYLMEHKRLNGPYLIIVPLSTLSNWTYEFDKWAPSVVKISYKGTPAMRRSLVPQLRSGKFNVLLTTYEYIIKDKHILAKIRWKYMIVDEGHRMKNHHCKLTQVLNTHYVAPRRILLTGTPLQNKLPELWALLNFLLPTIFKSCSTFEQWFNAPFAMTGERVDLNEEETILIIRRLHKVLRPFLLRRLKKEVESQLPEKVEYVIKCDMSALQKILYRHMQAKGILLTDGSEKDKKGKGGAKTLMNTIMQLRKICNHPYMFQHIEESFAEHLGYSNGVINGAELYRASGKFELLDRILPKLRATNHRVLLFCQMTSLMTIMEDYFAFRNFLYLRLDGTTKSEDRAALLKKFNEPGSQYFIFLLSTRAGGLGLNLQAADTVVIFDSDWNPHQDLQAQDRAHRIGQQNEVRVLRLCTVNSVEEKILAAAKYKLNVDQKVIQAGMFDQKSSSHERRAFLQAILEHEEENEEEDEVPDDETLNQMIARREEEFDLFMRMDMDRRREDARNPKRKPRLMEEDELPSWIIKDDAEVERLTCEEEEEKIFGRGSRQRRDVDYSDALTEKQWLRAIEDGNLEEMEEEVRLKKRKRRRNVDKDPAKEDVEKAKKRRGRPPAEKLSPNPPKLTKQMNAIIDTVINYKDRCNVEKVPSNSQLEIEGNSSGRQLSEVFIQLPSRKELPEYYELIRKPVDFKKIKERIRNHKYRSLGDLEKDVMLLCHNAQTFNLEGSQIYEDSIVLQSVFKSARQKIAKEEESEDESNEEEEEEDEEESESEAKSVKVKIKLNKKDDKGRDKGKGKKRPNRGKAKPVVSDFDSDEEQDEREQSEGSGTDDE

Broadly, the DC50 is the concentration at which degradation of the target reaches its halfway point. For `Cc1ncsc1-c1ccc([C@H](C)NC(=O)[C@@H]2C[C@@H](O)CN2C(=O)[C@@H](c2cc(OCCN3CCCC(N4CCN5c6cc(-c7ccccc7O)nnc6NC[C@H]5C4)C3)no2)C(C)C)cc1` (single isomer, unassigned) [Example 41], on SMARCA2, the DC50 is < 100 nM and the Dmax was > 75%. Besides, on SMARCA4, the DC50 is < 100 nM and the Dmax is > 75%.

In the case of `Cc1ncsc1-c1ccc([C@H](C)NC(=O)[C@@H]2C[C@@H](O)CN2C(=O)[C@@H](c2cc(OCCN3CCCC(N4CCN5c6cc(-c7ccccc7O)nnc6NC[C@H]5C4)C3)no2)C(C)C)cc1` (single isomer, unassigned) [Example 42], the DC50 on SMARCA2 and at SMARCA4 was < 100 nM each time.

With `Cc1ncsc1-c1ccc([C@H](C)NC(=O)[C@@H]2C[C@@H](O)CN2C(=O)[C@@H](c2cc(O[C@H](C)CN3CCC(N4CCN5c6cc(-c7ccccc7O)nnc6NC[C@H]5C4)C3)no2)C(C)C)cc1` (single isomer, unassigned) [Example 50], on SMARCA2, the DC50 was < 100 nM and the Dmax is > 75%. On SMARCA4, the DC50 is < 100 nM and the Dmax is > 75%.

In the case of `Cc1ncsc1-c1ccc([C@H](C)NC(=O)[C@@H]2C[C@@H](O)CN2C(=O)[C@@H](c2cc(O[C@H](C)CN3CCC(N4CCN5c6cc(-c7ccccc7O)nnc6NC[C@H]5C4)C3)no2)C(C)C)cc1` (single isomer, unassigned) [Example 51], on SMARCA2, the “Dmax % (SM2-HeLa) maximum SMARCA2 degradation within the concentrations tested” value is on record as “A/A (A = Dmax >75%)” and the DC50 is < 100 nM. Moreover, at SMARCA4, the “Dmax % (SM4-HeLa) maximum SMARCA4 degradation within the concentrations tested” value is on record as “A/A (A = Dmax >75%)” and the DC50 was < 100 nM.

In the case of `Cc1ncsc1-c1ccc([C@H](C)NC(=O)[C@@H]2C[C@@H](O)CN2C(=O)[C@@H](c2cc(OCCN3CCC(N4CCN5c6cc(-c7ccccc7O)nnc6NC[C@H]5C4)C(C)C3)no2)C(C)C)cc1` (single isomer, unassigned) [Example 55], the 50% degradation concentration (DC50) at SMARCA2 and on SMARCA4 was < 100 nM in each case. For the same compound, the Dmax on SMARCA2 and at SMARCA4 was > 75% each time.

Regarding `Cc1ncsc1-c1ccc([C@H](C)NC(=O)[C@@H]2C[C@@H](O)CN2C(=O)[C@@H](c2cc(OCCN3CCC(C(C)N4CCN5c6cc(-c7ccccc7O)nnc6NC[C@H]5C4)CC3)no2)C(C)C)cc1` (single isomer, unassigned) [Example 58], at SMARCA2, the DC50 is < 100 nM and the Dmax was > 75%. On SMARCA4, the DC50 was < 100 nM and the Dmax was > 75%.

As to `Cc1ncsc1-c1ccc([C@H](C)NC(=O)[C@@H]2C[C@@H](O)CN2C(=O)[C@@H](c2cc(OCCN3CCC(C(C)N4CCN5c6cc(-c7ccccc7O)nnc6NC[C@H]5C4)CC3)no2)C(C)C)cc1` (single isomer, unassigned) [Example 59], the 50% degradation concentration (DC50) on SMARCA2 and on SMARCA4 was < 100 nM each time.

In the case of `Cc1ncsc1-c1ccc([C@H](C)NC(=O)[C@@H]2C[C@@H](O)CN2C(=O)[C@@H](c2cc(OCCN3CCC(N4CCC(N5CCN6c7cc(-c8ccccc8O)nnc7NC[C@H]6C5)C4)CC3)no2)C(C)C)cc1` (single isomer, unassigned) [Example 69], the 50% degradation concentration (DC50) on SMARCA2 and at SMARCA4 was < 100 nM in each case. The Dmax on SMARCA2 and on SMARCA4 was > 75% in each case.

`Cc1ncsc1-c1ccc([C@H](C)NC(=O)[C@@H]2C[C@@H](O)CN2C(=O)[C@@H](c2cc(OCCN3CCC(N4CCC(N5CCN6c7cc(-c8ccccc8O)nnc7NC[C@H]6C5)C4)CC3)no2)C(C)C)cc1` (single isomer, unassigned) [Example 70]: the DC50 on SMARCA2 and on SMARCA4 was < 100 nM each time.

As to `Cc1ncsc1-c1ccc([C@H](C)NC(=O)[C@@H]2C[C@@H](O)CN2C(=O)[C@@H](c2cc(OCCN3CCCC(CN4CCN5c6cc(-c7ccccc7O)nnc6NC[C@H]5C4)C3)no2)C(C)C)cc1` (single isomer, unassigned) [Example 86], on SMARCA2, the DC50 was < 100 nM and the Dmax is > 75%. At SMARCA4, the DC50 is < 100 nM and the Dmax was > 75%.

With `Cc1ncsc1-c1ccc([C@H](C)NC(=O)[C@@H]2C[C@@H](O)CN2C(=O)[C@@H](c2cc(OCCN3CCC(N4CCC(N5CCN6c7cc(-c8ccccc8O)nnc7NC[C@H]6C5)CC4)C3)no2)C(C)C)cc1` (stereo partly drawn) [Example 25, (2S,4R)-4-hydroxy-1-((2R)-2-(3-(2-(3-(4-((S)-2-(2-hydroxyphenyl)-5,6,6a,7,9,10-hexahydro-8H-pyrazino[1′,2′:4,5]pyrazino[2,3-c]pyridazin-8-yl)piperidin-1-yl)pyrrolidin-1-yl)ethoxy)isoxazol-5-yl)-3-methylbutanoyl)-N-((S)-1-(4-(4-methylthiazol-5-yl)phenyl)ethyl)pyrrolidine-2-carboxamide], at SMARCA2, the DC50 is < 100 nM and the Dmax is > 75%. At SMARCA4, the DC50 fell in the range of 100 to 1000 nM and the Dmax was in the range of 50 to 75%.

For the compound `Cc1ncsc1-c1ccc([C@H](C)NC(=O)[C@@H]2C[C@@H](O)CN2C(=O)[C@@H](c2cc(OCCN3CCC(N4CCC(N5CCN6c7cc(-c8ccccc8O)nnc7NC[C@H]6C5)CC4)C3)no2)C(C)C)cc1` (stereo partly drawn) [Example 26, (2S,4R)-4-hydroxy-1-((2R)-2-(3-(2-(3-(4-((S)-2-(2-hydroxyphenyl)-5,6,6a,7,9,10-hexahydro-8H-pyrazino[1′,2′:4,5]pyrazino[2,3-c]pyridazin-8-yl)piperidin-1-yl)pyrrolidin-1-yl)ethoxy)isoxazol-5-yl)-3-methylbutanoyl)-N-((S)-1-(4-(4-methylthiazol-5-yl)phenyl)ethyl)pyrrolidine-2-carboxamide], the DC50 was < 100 nM on SMARCA2 and 100 to 1000 nM at SMARCA4.

As for `Cc1ncsc1-c1ccc([C@H](C)NC(=O)[C@@H]2C[C@@H](O)CN2C(=O)[C@@H](c2cc(O[C@@H](C)C(=O)N3CCC(N4CCN5c6cc(-c7ccccc7O)nnc6NC[C@H]5C4)CC3)no2)C(C)C)cc1` [Example 27, (2S,4R)-4-hydroxy-1-((R)-2-(3-(((S)-1-(4-((S)-2-(2-hydroxyphenyl)-5,6,6a,7,9,10-hexahydro-8H-pyrazino[1′,2′:4,5]pyrazino[2,3-c]pyridazin-8-yl)piperidin-1-yl)-1-oxopropan-2-yl)oxy)isoxazol-5-yl)-3-methylbutanoyl)N-((S)-1-(4-(4-methylthiazol-5-yl)phenyl)ethyl)pyrrolidine-2-carboxamide], the figures for the DC50 at SMARCA2 and on SMARCA4 were < 100 nM and 100 to 1000 nM, respectively. Also, the figures for the Dmax on SMARCA2 and at SMARCA4 were > 75% and 50 to 75%, respectively.

`Cc1ncsc1-c1ccc([C@H](C)NC(=O)[C@@H]2C[C@@H](O)CN2C(=O)C(c2cc(O[C@H](C)C(=O)N3CCC(N4CCN5c6cc(-c7ccccc7O)nnc6NC[C@H]5C4)C3)no2)C(C)C)cc1` (stereo partly drawn) [Example 28, (2S,4R)-4-hydroxy-1-(2-(3-(((2R)-1-(3-((S)-2-(2-hydroxyphenyl)-5,6,6a,7,9,10-hexahydro-8H-pyrazino[1′,2′:4,5]pyrazino[2,3-c]pyridazin-8-yl)pyrrolidin-1-yl)-1-oxopropan-2-yl)oxy)isoxazol-5-yl)-3-methylbutanoyl)-N-((S)-1-(4-(4-methylthiazol-5-yl)phenyl)ethyl)pyrrolidine-2-carboxamide]: on SMARCA2, the DC50 is < 100 nM and the Dmax is > 75%. In addition, on SMARCA4, the DC50 was 100 to 1000 nM and the Dmax was ≤ 50%.

Regarding `Cc1ncsc1-c1ccc([C@H](C)NC(=O)[C@@H]2C[C@@H](O)CN2C(=O)C(c2cc(O[C@H](C)C(=O)N3CCC(N4CCN5c6cc(-c7ccccc7O)nnc6NC[C@H]5C4)C3)no2)C(C)C)cc1` (stereo partly drawn) [Example 29, (2S,4R)-4-hydroxy-1-(2-(3-(((2R)-1-(3-((S)-2-(2-hydroxyphenyl)-5,6,6a,7,9,10-hexahydro-8H-pyrazino[1′,2′:4,5]pyrazino[2,3-c]pyridazin-8-yl)pyrrolidin-1-yl)-1-oxopropan-2-yl)oxy)isoxazol-5-yl)-3-methylbutanoyl)-N-((S)-1-(4-(4-methylthiazol-5-yl)phenyl)ethyl)pyrrolidine-2-carboxamide], the DC50 was < 100 nM at SMARCA2 and 100 to 1000 nM on SMARCA4.
